What all share (type): biochemical
Experiment [1] addresses T1, μ-opioid receptor (Homo sapiens (Human), UniProt P35372). In words: μ-opioid receptor [35S]GTPγS functional assay, U-2 OS cells (Table 5). The conditions noted are these: for Emax: relative to DAMGO; for EC50: μ GTP. The procedure, abridged:
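Membranes (0.026 mg/mL) from cells expressing recombinant human μ-opioid receptor in a U-2 OS background were incubated with 0.20 nM [35S]GTPγS, 3 mM GDP and saponin in 20 mM HEPES pH 7.4, 100 mM NaCl, 10 mM MgCl2 for 30 min at about 25 °C. Filter-bound radioactivity counted; sigmoidal dose-response fits gave values, Emax relative to DAMGO.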

For experiment [2], the target named is T2, κ-opioid receptor (Homo sapiens (Human), UniProt P41145). Description: κ-opioid receptor [35S]GTPγS functional assay, HEK-293 or CHO cells (Table 4). The conditions noted are these: for Emax: relative to U69,593; for EC50: κ GTP. As for the experimental part: κ-Opioid Receptor Functional Assay Procedures: Functional [^35S]GTPγS binding assays were conducted as follows. κ opioid receptor membrane solution was prepared by sequentially adding final concentrations of 0.026 μg/μl κ membrane protein (in-house), 10 μg/mL saponin, 3 μM GDP and 0.20 nM [^35S]GTPγS to binding buffer (100 mM NaCl, 10 mM MgCl2, 20 mM HEPES, pH 7.4) on ice. The prepared membrane solution (190 μl/well) was transferred to 96-shallow well polypropylene plates containing 10 μl of 20× concentrated stock solutions of agonist prepared in DMSO. Plates were incubated for 30 min at a temperature of about 25° C. with shaking. Reactions were terminated by rapid filtration onto 96-well Unifilter GF/B filter plates (Perkin Elmer, Shelton, Conn.) using a 96-well tissue harvester (Packard) and followed by three filtration washes with 200 μl ice-cold binding buffer (10 mM NaH2PO4, 10 mM Na2HPO4, pH 7.4). Filter plates were subsequently dried at 50° C. for 2-3 hours. Fifty μl/well scintillation cocktail (Perkin Elmer, Shelton, Conn.) was added and plates were counted in a Packard Top-Count for 1 min/well.
κ GTP Emax (%) is the maximal effect elicited by a compound relative to the effect elicited by U69,593.
(§1) In TABLE 4, activity response of certain Compounds of the Invention to the μ- and κ-opioid receptors was determined as described above for functional assays using HEK-293 or CHO cells.
In general terms: GTPγS resists hydrolysis and so accumulates on activated G proteins.

The target in experiment [3] is T1, μ-opioid receptor. In words: μ-opioid receptor [35S]GTPγS functional assay, HEK-293 or CHO cells (Table 4). The conditions noted are these: for Emax: relative to DAMGO; for EC50: μ GTP. As for the experimental part:
μ-Opioid Receptor Functional Assay Procedures: [^35S]GTPγS functional assays were conducted using freshly thawed μ-receptor membranes prepared in-house from a cell line expressing recombinant μ opioid receptor in a HEK-293, CHO or U-2 OS cell background, or purchased from a commercial source (Perkin Elmer, Shelton, Conn.; or DiscovRx, Fremont, Calif.). Assay reactions were prepared by sequentially adding the following reagents to binding buffer (100 mM NaCl, 10 mM MgCl2, 20 mM HEPES, pH 7.4) on ice (final concentrations indicated): membrane protein (0.026 mg/mL), saponin ([…]), GDP ([…]) and [^35S]GTPγS (0.20 nM; Perkin Elmer, Shelton, Conn.). The prepared membrane solution (190 μl/well) was transferred to 96-shallow well polypropylene plates containing 10 μl of 20× concentrated stock solutions of the agonist [D-Ala^2, N-methyl-Phe^4 Gly-ol^5]-enkephalin (DAMGO) prepared in dimethyl sulfoxide (DMSO). Plates were incubated for 30 min at about 25° C. with shaking Reactions were terminated by rapid filtration onto 96-well Unifilter GF/B filter plates (Perkin Elmer, Shelton, Conn.) using a 96-well tissue harvester (Perkin Elmer, Shelton, Conn.) followed by three filtration washes with 200 μl of ice-cold wash buffer (10 mM NaH2PO4, 10 mM Na2HPO4, pH 7.4). Filter plates were subsequently dried at 50° C. for 2-3 hours. BetaScint scintillation cocktail (Perkin Elmer, Shelton, Conn.) was added (50 μl/well) and plates were counted using a Packard Top-Count for 1 min/well. Data were analyzed using the sigmoidal dose-response curve fitting functions in GraphPad PRISM v. 3.0, or an in-house function for non-linear, sigmoidal dose-response curve-fitting. [^35S]GTPγS functional assays can also be conducted using freshly thawed μ-receptor membranes prepared from a cell line expressing recombinant μ opioid receptor in a CHO-K1 cell background.
μ GTP Emax (%) is the maximal effect elicited by a compound relative to the effect elicited by DAMGO, a standard μ agonist.
as §1

For experiment [4], the target named is T2, κ-opioid receptor. Description: κ-opioid receptor [35S]GTPγS functional assay, U-2 OS cells (Table 5). The conditions noted are these: for Emax: relative to U69,593; for EC50: κ GTP. In outline: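 [35S]GTPγS binding in κ receptor membranes (0.026 μg/μl protein) with 10 μg/mL saponin, 3 μM GDP and 0.20 nM [35S]GTPγS in pH 7.4 HEPES/NaCl/MgCl2 buffer. Agonist incubation lasted 30 min at about 25 °C, followed by filtration and scintillation counting. Emax is expressed relative to U69,593.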

One may read the Emax as the maximal effect, on the per cent scale that the assay sets. For orientation: EC50 means the concentration that produces a half-maximal response. Higher therefore signals lower potency in that assay. Turning to `NC(=O)[C@H]1C[C@]23CCN(CC4CC4)[C@H](Cc4ccc(O)cc42)[C@]3(O)C1` [Compound 30, (2S,3aS,4R,9bS)-12-(cyclopropylmethyl)-3a,8-dihydroxy-1,2,3,3a,4,5-hexahydro-4,9b-(epiminoethano)cyclopenta-[a]naphthalene-2-carboxamide], the Emax in experiment [1] is 32 ± 1.15%; in experiment [2], 50.7 ± 0.33%; in experiment [3] it was 1%; in experiment [4], 100 ± 1.2%. Also, the concentration giving a half-maximal response (EC50) in experiment [1] was 1.62 ± 0.41 nM; in experiment [2], 2.49 ± 0.09 nM; in experiment [3] (bound given in μM) it was above 20 µM; in experiment [4], 1.26 ± 0.05 nM.
`N[C@@H]1CC23CCN(CC4CC4)[C@H](Cc4ccc(O)cc42)[C@]3(O)C1` (stereo in doubt) [Compound 22, (2R,3aS,4R,9bS)-2-amino-12-(cyclopropylmethyl)-1,2,3,3a,4,5-hexahydro-4,9b-(epiminoethano)-cyclopenta[a]naphthalene-3a,8-diol]: the Emax in experiment [1] was 20.7 ± 2.4%; in experiment [2] it was 77 ± 1%; in experiment [3] it was 1%; in experiment [4] it was 101 ± 1.76%. In addition, the EC50 is 111 ± 14.1 nM in experiment [1], 25.7 ± 4.99 nM in experiment [2], above 20 µM in experiment [3] (bound given in μM) and 25.4 ± 2.09 nM in experiment [4].
`O=C(NCc1ccc(Cl)c(Cl)c1)[C@H]1C[C@]23CCN(CC4CC4)[C@H](Cc4ccc(O)cc42)[C@]3(O)C1` [Compound 47, (2S,3aS,4R,9bS)-12-(cyclopropylmethyl)-N-(3,4-dichlorobenzyl)-3a,8-dihydroxy-1,2,3,3a,4,5-hexahydro-4,9b-(epimino-ethano)cyclopenta[a]naphthalene-2-carboxamide]: the Emax in experiment [1] was 98.8 ± 1.49%; in experiment [2], 88.8 ± 10%; in experiment [3] it was 86 ± 3.46%; in experiment [4], 95 ± 5.29%. The half-maximal effective concentration (EC50) in experiment [1] was 0.05 ± 0.01 nM; in experiment [2], 0.03 ± 0.01 nM; in experiment [3] it was 0.00276 ± 8.2e-05 µM; in experiment [4] it was 0.015 nM.
On to `COc1ccc2c(c1)[C@]13CCN(CC4CC4)[C@H](C2)[C@]1(O)C[C@@H](C(=O)O)C3` [Compound 15, (2S,3aS,4R,9bS)-12-(cyclopropylmethyl)-3a-hydroxy-8-methoxy-1,2,3,3a,4,5-hexahydro-4,9b-(epiminoethano)-cyclopenta[a]naphthalene-2-carboxylic acid], for which the Emax stood at 31.6 ± 3.21% in experiment [1], 7% in experiment [3] and 79.7 ± 5.81% in experiment [4]. In addition, the EC50 in experiment [1] was 343 ± 110 nM; in experiment [3] (bound given in μM) it was above 20 µM; in experiment [4], 2900 ± 82.3 nM.
`O=C(NCc1ccc(O)cc1)[C@@H]1C[C@]23CCN(CC4CC4)[C@H](Cc4ccc(O)cc42)[C@]3(O)C1` [Compound 39, (2R,3aS,4R,9bS)-12-(cyclopropylmethyl)-3a,8-dihydroxy-N-(4-hydroxybenzyl)-1,2,3,3a,4,5-hexahydro-4,9b-(epimino-ethano)cyclopenta[a]naphthalene-2-carboxamide]: the Emax was found to be 42 ± 1% in experiment [1], 15 ± 1.73% in experiment [3] and 91.7 ± 1.86% in experiment [4]. The EC50 in experiment [1] was found to be 11.1 ± 0.28 nM; in experiment [3] it was 0.0375 ± 0.0126 µM; in experiment [4], 1.85 ± 0.097 nM.
On to `Cc1ccc(CNC(=O)[C@@H]2C[C@]34CCN(CC5CC5)[C@H](Cc5ccc(O)cc53)[C@]4(O)C2)cc1` [Compound 37, (2R,3aS,4R,9bS)-12-(cyclopropylmethyl)-3a,8-dihydroxy-N-(4-methylbenzyl)-1,2,3,3a,4,5-hexahydro-4,9b-(epimino-ethano)cyclopenta[a]naphthalene-2-carboxamide], for which the Emax in experiment [1] was determined as 30.7 ± 2.67%; in experiment [2], 32.5 ± 2.1%; in experiment [3], 1%; in experiment [4], 105.3 ± 0.88%. Further, the EC50 in experiment [1] was 8.48 ± 2.28 nM; in experiment [2] it was 1.74 ± 0.39 nM; in experiment [3] (bound given in μM), above 20 µM; in experiment [4], 0.97 ± 0.11 nM.
Regarding `COc1ccc2c(c1)C13CCN(CC4CC4)[C@H](C2)[C@]1(O)C[C@@H](N)C3` (stereo in doubt) [Compound 28, (2S,3aS,4R,9bS)-2-amino-12-(cyclopropylmethyl)-8-methoxy-1,2,3,3a,4,5-hexahydro-4,9b-(epiminoethano)cyclopenta[a]naphthalene-3a-ol], the Emax in experiment [1] turned out to be 35.7 ± 5.49%; in experiment [3], 7.5%; in experiment [4] it was 106.7 ± 0.88%. The EC50 in experiment [1] was 326 ± 77.9 nM; in experiment [3] (bound given in μM), above 20 µM; in experiment [4] it was 179 ± 16.4 nM.
With `O=C(NCCc1ccccc1)[C@H]1C[C@]23CCN(CC4CC4)[C@H](Cc4ccc(O)cc42)[C@]3(O)C1` [Compound 51, (2S,3aS,4R,9bS)-12-(cyclopropylmethyl)-3a,8-dihydroxy-N-phenethyl-1,2,3,3a,4,5-hexahydro-4,9b-(epiminoethano)cyclo-penta[a]naphthalene-2-carboxamide], the Emax in experiment [1] was 87.7 ± 1.2%; in experiment [3], 43 ± 3.06%; in experiment [4] it was 102 ± 2.31%. Further, the concentration for a half-maximal effect (EC50) in experiment [1] came to 0.13 ± 0.015 nM; in experiment [3], 0.00049 ± 4e-05 µM; in experiment [4] it was 0.047 nM.
For the compound `COc1ccc2c(c1)[C@]13CCN(CC4CC4)[C@H](C2)[C@]1(O)C[C@H](C#N)C3` [Compound 25, (2R,3aS,4R,9bS)-12-(cyclopropylmethyl)-3a-hydroxy-8-methoxy-1,2,3,3a,4,5-hexahydro-4,9b-(epiminoethano)-cyclopenta[a]naphthalene-2-carbonitrile], the Emax was determined as 54.3 ± 4.1% in experiment [1], 12 ± 2.08% in experiment [3] and 107 ± 4.16% in experiment [4]. In addition, the EC50 in experiment [1] was found to be 228 ± 25.4 nM; in experiment [3], 0.616 ± 0.0409 µM; in experiment [4], 234 ± 28.5 nM.
As for `NC(=O)CNC(=O)[C@@H]1C[C@]23CCN(CC4CC4)[C@H](Cc4ccc(O)cc42)[C@]3(O)C1` [Compound 64, (2R,3aS,4R,9bS)-N-(2-amino-2-oxoethyl)-12-(cyclopropylmethyl)-3a,8-dihydroxy-1,2,3,3a,4,5-hexahydro-4,9b-(epiminoethano)cyclopenta[a]naphthalene-2-carboxamide], the Emax in experiment [1] was 48.7 ± 0.33%; in experiment [3], 3.5%; in experiment [4] it was 101 ± 4.98%. Further, the concentration giving a half-maximal response (EC50) in experiment [1] is 6.96 ± 0.27 nM; in experiment [3] (bound given in μM), above 20 µM; in experiment [4], 3.51 ± 0.16 nM.
`O=C(NCc1ccc(F)cc1)[C@@H]1C[C@]23CCN(CC4CC4)[C@H](Cc4ccc(O)cc42)[C@]3(O)C1` [Compound 48, (2R,3aS,4R,9bS)-12-(cyclopropylmethyl)-N-(4-fluorobenzyl)-3a,8-dihydroxy-1,2,3,3a,4,5-hexahydro-4,9b-(epimino-ethano)cyclopenta[a]naphthalene-2-carboxamide]: the values for the Emax in experiment [1], in experiment [3] and in experiment [4] were 40 ± 1.53%, -1% and 106 ± 2.33%, respectively. Besides, the EC50 is 3.12 ± 0.27 nM in experiment [1], above 20 µM in experiment [3] (bound given in μM) and 1.46 ± 0.29 nM in experiment [4].

(Values after patent US9656962B2, “Ring-contracted morphinans and the use thereof” (Purdue Pharma L.P., priority 2013, dated 2017).)
